Common to all, as to assay type: binding
Assay [1] concerns the target T1, HeLa cell extract proteins (Homo sapiens, UniProt Q9BVK8).
T1 construct: endogenous in cells; host or cells: HeLa cell extract
T1 sequence (Q9BVK8 1-224): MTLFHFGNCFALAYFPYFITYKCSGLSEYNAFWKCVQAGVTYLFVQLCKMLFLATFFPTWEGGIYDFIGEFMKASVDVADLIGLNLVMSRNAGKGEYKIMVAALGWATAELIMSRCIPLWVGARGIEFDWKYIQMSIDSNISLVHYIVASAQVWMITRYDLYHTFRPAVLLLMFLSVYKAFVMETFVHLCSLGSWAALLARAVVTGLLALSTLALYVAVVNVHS
The conditions noted are these: HeLa; protein TMEM147.

Assay [2] has as its target T2, HeLa cell extract proteins (Homo sapiens, UniProt Q9Y5V3).
T2 construct: endogenous in cells; host or cells: HeLa cell extract
T2 sequence (Q9Y5V3 1-778): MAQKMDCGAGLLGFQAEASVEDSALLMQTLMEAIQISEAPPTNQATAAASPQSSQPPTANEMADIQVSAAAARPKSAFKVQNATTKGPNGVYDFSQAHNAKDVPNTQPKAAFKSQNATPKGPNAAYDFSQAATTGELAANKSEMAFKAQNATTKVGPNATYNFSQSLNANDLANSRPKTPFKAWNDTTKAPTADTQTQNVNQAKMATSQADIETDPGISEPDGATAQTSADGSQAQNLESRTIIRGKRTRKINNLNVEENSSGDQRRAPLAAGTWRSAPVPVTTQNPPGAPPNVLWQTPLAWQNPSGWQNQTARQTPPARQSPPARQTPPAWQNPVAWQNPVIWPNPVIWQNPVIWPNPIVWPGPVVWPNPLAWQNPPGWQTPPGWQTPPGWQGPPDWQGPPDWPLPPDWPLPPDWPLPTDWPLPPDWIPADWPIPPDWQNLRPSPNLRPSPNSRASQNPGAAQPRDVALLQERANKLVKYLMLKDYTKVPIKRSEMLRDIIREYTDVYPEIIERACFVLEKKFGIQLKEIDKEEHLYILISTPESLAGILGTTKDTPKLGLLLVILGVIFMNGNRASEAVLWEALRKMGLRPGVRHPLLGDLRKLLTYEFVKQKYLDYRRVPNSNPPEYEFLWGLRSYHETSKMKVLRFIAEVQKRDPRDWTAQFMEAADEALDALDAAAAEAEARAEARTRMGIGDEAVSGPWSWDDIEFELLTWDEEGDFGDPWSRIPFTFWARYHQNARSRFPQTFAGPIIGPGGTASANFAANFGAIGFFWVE
The note with it: captured protein MAGED1; HeLa.

Assay [3] addresses T3, HeLa cell extract proteins (Homo sapiens, UniProt P14314).
T3 construct: endogenous in cells; host or cells: HeLa cell extract
T3 sequence (P14314 15-528): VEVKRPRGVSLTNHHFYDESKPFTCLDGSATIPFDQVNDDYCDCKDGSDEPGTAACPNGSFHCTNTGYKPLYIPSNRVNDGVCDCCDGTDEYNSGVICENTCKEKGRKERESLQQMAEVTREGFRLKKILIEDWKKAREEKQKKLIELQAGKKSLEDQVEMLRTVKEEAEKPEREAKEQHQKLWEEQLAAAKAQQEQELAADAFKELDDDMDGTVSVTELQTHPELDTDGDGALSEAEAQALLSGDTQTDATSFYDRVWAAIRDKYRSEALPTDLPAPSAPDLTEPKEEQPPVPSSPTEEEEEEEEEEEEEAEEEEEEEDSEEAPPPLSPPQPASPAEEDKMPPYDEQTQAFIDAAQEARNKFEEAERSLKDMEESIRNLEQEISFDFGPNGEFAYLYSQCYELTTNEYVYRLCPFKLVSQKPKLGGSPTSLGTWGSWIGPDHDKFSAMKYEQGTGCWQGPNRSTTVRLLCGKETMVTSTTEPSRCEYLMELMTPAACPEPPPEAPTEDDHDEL
The note with it: HeLa; protein PRKCSH (CDNA FLJ59211, HIGHLY SIMILAR TO GLUCOSIDASE 2 SUBUNIT BETA.).

In assay [4] the target is T4, HeLa cell extract proteins (Homo sapiens, UniProt P04004).
T4 construct: endogenous in cells; host or cells: HeLa cell extract
T4 sequence (P04004 20-478): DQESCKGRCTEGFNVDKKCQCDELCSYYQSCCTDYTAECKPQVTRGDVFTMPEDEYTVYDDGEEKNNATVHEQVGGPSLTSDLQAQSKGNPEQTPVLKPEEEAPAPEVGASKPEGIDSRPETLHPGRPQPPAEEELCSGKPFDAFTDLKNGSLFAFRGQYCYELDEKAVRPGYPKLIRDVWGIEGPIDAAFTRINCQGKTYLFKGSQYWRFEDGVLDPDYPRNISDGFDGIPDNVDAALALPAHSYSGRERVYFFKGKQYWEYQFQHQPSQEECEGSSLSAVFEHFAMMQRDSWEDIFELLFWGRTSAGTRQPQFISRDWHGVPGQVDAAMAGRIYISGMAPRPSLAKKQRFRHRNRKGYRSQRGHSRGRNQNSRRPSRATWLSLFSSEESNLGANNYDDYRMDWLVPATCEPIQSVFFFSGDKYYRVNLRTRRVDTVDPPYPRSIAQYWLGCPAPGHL
The conditions noted are these: HeLa; protein VTN.

Assay [5] has as its target T5, HeLa cell extract proteins (Homo sapiens, UniProt P22061).
T5 construct: endogenous in cells; host or cells: HeLa cell extract
The note with it: protein PCMT1; HeLa.

For assay [6], the target named is T6, HeLa cell extract proteins (Homo sapiens, UniProt P45954).
T6 construct: endogenous in cells; host or cells: HeLa cell extract

Assay [7] concerns the target T7, HeLa cell extract proteins (Homo sapiens, UniProt P13727).
T7 construct: endogenous in cells; host or cells: HeLa cell extract
T7 sequence (P13727 106-222): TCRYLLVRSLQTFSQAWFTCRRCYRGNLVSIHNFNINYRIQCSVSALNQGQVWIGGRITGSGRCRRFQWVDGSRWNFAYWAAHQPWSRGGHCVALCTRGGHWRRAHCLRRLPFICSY

Assay [8] addresses T8, HeLa cell extract proteins (Homo sapiens, UniProt P52298).
T8 construct: endogenous in cells; host or cells: HeLa cell extract
T8 sequence (P52298 1-156): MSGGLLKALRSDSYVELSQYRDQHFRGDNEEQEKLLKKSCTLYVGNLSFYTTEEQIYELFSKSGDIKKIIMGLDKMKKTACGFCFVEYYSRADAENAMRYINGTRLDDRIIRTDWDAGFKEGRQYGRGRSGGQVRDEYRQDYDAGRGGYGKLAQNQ

The test system of assay [9] is SUCCINYL-COA SYNTHETASE ALPHA SUBUNIT, PUTATIVE (Tb427.03.2230). Briefly: Multitargeted bead mixture competition. The note with it: free ligand 100 μM, T. brucei lysate.
Another assay has as its system TB09.211.1690. Briefly: Multitargeted bead mixture competition. The note with it: free ligand 100 μM, T. brucei lysate.
The test system of the next assay is TB927.8.6760. Put plainly: Multitargeted bead mixture competition. The conditions noted are these: free ligand 100 μM, T. brucei lysate.
In assay [10] the test system is PHOSPHATIDYLINOSITOL-4-PHOSPHATE 5-KINASE, PUTATIV (TB427.10.3890). Put plainly: Multitargeted bead mixture competition. The note with it: free ligand 100 μM, T. brucei lysate.
The mark [11] stands for this setting: HeLa, protein NCBP2 (NUCLEAR CAP-BINDING PROTEIN SUBUNIT 2).

Where two headings read alike, the source gives them in different places.

T5 sequence (P22061 whole entry): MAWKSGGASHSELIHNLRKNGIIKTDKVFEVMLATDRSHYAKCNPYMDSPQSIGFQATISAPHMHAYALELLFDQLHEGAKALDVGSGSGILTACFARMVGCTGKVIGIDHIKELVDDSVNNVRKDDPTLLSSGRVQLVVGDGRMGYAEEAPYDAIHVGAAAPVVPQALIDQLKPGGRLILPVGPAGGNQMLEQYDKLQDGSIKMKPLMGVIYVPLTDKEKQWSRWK

Regarding `CCCCCCOc1cccc(Cc2cnc(N)nc2N)c1` [compound 2], the “fold changes relative to vehicle control” value in [1] was 0.97; in [2], 0.78; in [3] it was 2.8 fold; in assay [4], 0.91; in assay [5], 1.28.
For `NCCOCCOCC(=O)Nc1nc2ncc(CNc3ccc(C(=O)NC(CCC(=O)O)C(=O)O)cc3)nc2c(=O)[nH]1` (stereo not shown) [compound 6], the “fold changes relative to vehicle control” value is recorded as 0.96 in assay [6] (HeLa, protein ACADSB); 0.77 in assay [7] (HeLa, captured protein PRG2); 0.91 in assay [8] (setting [11]).
On to `CCCCCCOc1ccc(Cc2cnc(N)nc2N)cc1` [compound 1], for which the “fold changes relative to vehicle control” value in [1] is listed as 0.72; in assay [2], 0.98; in assay [3] it was 1.76 fold; in [4], 1; in assay [5], 0.92.
With `Nc1nc2c(c(=O)[nH]1)N(C=O)C(CNc1ccc(C(=O)N[C@@H](CCC(=O)O)C(=O)O)cc1)CN2` (stereo partly shown) [LEU, leucovorin], the “fold changes relative to vehicle control” value turned out to be 0.9 in [6] (HeLa, protein ACADSB); 0.92 in [7] (HeLa, captured protein PRG2); 1.05 in assay [8] (setting [11]).
On the same counts, the results for `NCCCNc1ccc(C(=O)NC(CCC(=O)O)C(=O)O)cc1` (stereo not shown) [compound 7] are 1.02, 1.01 and 0.95.
For `Nc1nc2[nH]cc(CCc3ccc(C(=O)N[C@@H](CCC(=O)O)C(=O)O)cc3)c2c(=O)[nH]1` [PTX, pemetrexed], the “fold changes relative to vehicle control” value in [6] was 0.93; in [7] it was 0.86; in assay [8], 0.91.
On to `Nc1nc2cccc(-c3ccccc3)c2n1Cc1ccc(Cl)c(Cl)c1` [compound 3], for which the “percentage of competition from bead binding” value in assay [9] is 10%; in the assay with TB09.211.1690, 39%; in the assay with TB927.8.6760, 20%; in [10], -23%. The “fold changes relative to vehicle control” value in assay [1] stood at 0.96; in assay [2], 0.88; in assay [3] it was 1.26 fold; in assay [4], 1.05; in [5] it was 0.88.

The values are drawn from paper PMC6199744, “Development of Chemical Proteomics for the Folateome and Analysis of the Kinetoplastid Folateome” (ACS Infectious Diseases, 2018).
